Data: PMC2931832 (ACS medicinal chemistry letters, 2010)

What was measured:
CYP2C9 = CYP2C9 (Homo sapiens, UniProt P11712); experiment: cytochrome p450 CYP2C9 inhibition; conditions: 6 µM of compound
H460 lung tumor cell = experiment: cell culture-based proliferation assay, H460; conditions: Homo sapiens, NCI-H460, read-out: IC50 of H460 tumor cell growth
H1299 lung tumor cell = experiment: cell culture-based proliferation assay, H1299; conditions: Homo sapiens, NCI-H1299, read-out: IC50 of H1299 tumor cell growth
EGFR = EGFR (Homo sapiens, UniProt P00533); experiment: EGFR kinase activity, fluorescence-based coupled-enzyme assay; format: biochemical
[1] = molecular target: human Ether-a-go-go Related Gene (hERG) K+ channel (Homo sapiens, UniProt Q12809); experiment: hERG K+ channel binding / blockage; conditions: 6 µM of compound
[2] = test system: breast, ovarian and lymphatic leukemia; conditions: cited from earlier work

Sequence of CYP2C9 (P11712 whole entry): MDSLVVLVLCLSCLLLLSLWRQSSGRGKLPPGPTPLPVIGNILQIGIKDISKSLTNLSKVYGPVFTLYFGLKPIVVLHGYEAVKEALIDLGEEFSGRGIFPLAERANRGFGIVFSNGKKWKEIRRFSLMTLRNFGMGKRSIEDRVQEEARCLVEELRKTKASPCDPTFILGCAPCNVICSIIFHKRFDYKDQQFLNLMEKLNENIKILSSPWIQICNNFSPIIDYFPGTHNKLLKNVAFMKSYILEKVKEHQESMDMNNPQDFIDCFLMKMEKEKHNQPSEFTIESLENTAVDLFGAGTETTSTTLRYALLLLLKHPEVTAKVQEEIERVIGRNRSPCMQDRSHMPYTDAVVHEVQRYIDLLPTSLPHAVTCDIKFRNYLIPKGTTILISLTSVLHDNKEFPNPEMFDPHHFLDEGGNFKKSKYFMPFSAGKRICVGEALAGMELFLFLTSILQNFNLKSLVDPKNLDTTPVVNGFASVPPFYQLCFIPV
Sequence of EGFR (P00533 25-1210): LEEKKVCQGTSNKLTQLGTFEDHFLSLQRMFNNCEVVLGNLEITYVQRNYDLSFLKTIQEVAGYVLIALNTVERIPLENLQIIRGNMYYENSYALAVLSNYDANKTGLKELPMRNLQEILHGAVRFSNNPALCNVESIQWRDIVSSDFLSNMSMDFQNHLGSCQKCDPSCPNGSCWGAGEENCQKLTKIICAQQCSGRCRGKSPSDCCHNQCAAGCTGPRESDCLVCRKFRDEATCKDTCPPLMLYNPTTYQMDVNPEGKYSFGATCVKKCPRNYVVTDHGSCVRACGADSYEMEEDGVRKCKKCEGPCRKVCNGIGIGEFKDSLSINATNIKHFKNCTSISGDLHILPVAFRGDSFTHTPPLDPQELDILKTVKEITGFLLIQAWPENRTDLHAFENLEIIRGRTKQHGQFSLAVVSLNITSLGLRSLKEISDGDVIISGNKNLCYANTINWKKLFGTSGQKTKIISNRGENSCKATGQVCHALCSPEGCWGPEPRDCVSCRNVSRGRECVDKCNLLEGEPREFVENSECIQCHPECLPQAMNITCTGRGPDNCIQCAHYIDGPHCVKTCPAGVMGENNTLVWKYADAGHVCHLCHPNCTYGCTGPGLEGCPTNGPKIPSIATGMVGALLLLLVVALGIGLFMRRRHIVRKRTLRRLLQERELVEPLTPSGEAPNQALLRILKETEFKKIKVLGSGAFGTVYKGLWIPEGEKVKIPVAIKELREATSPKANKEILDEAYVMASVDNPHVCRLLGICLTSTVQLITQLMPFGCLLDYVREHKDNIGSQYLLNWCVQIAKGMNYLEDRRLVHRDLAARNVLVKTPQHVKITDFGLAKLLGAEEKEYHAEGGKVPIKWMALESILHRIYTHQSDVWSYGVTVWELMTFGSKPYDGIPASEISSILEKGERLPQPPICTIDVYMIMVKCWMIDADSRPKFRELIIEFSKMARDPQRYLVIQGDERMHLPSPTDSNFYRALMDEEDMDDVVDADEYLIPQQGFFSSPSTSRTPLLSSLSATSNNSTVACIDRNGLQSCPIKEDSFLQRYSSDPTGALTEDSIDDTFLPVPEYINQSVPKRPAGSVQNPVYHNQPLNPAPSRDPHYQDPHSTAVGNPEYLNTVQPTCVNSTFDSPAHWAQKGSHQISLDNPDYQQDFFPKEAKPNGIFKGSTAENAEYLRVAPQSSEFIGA
Sequence of human Ether-a-go-go Related Gene (hERG) K+ channel (Q12809 whole entry): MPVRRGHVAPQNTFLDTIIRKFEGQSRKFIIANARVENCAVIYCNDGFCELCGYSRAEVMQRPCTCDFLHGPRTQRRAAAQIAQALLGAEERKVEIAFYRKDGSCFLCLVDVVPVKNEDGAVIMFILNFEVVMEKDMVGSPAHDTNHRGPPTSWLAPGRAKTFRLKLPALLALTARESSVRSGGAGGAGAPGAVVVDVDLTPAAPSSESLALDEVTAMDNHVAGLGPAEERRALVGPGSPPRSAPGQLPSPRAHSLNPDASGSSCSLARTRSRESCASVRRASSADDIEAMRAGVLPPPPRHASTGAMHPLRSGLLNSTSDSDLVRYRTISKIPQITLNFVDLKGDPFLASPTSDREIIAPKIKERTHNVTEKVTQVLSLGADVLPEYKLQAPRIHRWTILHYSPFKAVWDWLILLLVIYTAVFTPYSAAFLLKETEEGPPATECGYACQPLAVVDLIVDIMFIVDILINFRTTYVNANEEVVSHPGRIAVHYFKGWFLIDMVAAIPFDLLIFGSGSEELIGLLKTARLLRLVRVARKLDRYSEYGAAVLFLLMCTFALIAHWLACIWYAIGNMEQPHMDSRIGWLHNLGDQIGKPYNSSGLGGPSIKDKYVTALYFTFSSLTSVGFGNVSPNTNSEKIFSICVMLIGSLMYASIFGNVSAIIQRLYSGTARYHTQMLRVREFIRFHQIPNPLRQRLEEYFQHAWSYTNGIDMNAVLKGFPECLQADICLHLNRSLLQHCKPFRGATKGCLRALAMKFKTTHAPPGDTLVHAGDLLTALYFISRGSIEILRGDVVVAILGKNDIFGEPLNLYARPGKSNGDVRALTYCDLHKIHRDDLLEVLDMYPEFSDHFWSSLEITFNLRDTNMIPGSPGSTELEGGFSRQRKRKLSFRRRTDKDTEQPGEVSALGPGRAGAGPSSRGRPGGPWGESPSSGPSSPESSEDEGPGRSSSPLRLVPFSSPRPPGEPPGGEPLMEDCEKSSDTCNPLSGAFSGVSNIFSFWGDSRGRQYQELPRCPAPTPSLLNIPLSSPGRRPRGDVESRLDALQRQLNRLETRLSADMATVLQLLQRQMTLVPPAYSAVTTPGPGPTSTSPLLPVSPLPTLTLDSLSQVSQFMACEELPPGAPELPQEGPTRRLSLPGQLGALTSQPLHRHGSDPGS

Structure (SMILES) | inhibition of CYP2C9 (in words) (CYP2C9) | IC50 (H460 lung tumor cell) [µM] | IC50 (H1299 lung tumor cell) [µM] | IC50 (EGFR) [µM] | hERG K+ channel blockage (in words) [1] | efficacy in breast, ovarian and lymphatic leukemia [2]
C#Cc1cccc(Nc2ncnc3cc(OCCOC)c(OCCOC)cc23)c1 [erlotinib, reference compound] | little inhibition | ~10 | ~10 | – | – | –
C[C@H]1Oc2cc3c(-c4c(O)cc(O)c5c(O)c6c(cc45)O[C@H](C)[C@@H](C)C6=O)c(O)cc(O)c3c(O)c2C(=O)[C@@H]1C [Compound 12, Chaetochromin A] | significant inhibition | – | ~1 | 0.25 | significant blockage | shown efficacy
